Results: patent US9457033B2, “Steroid alkaloids and uses thereof as antimicrobial agents against electron transport-deficient microbes and as potentiators for antimicrobial agents against pathogenic bacteria” (priority 2011, dated 2016)

Experiments:
[1] = system: heterogeneous population of normal strain CF07-L and SCV CF07-S; test: Broth growth with gentamicin and tomatidine, visually evaluated (FIG. 5C); conditions: combination of gentamicin at 4 μg/ml and tomatidine at 0.12 μg/ml
SCV CF07-S = test: Broth growth with gentamicin or tomatidine, visually evaluated (FIG. 5B); conditions: gentamicin at 4 μg/ml or tomatidine at 0.12 μg/ml alone, 48 h

Substance: gentamicin
- growth, visually evaluated [1]: inhibits the growth
- growth, visually evaluated (SCV CF07-S): does not inhibit the growth
